Source: US10047078B2, “Aminothiazole compounds” (National Health Research Institutes, priority 2016, dated 2018)

Experiments:
in vivo = conditions: male, ICR, mouse
Method: (§7) Male ICR mice weighing 25-35 g each were obtained from BioLASCO (Taiwan Co., Ltd, Ilan, Taiwan). The animal studies were performed according to the National Health Research Institutes (NHRI) institutional animal care and committee-approved procedures. […] A single dose at 10 mg/kg of each of these four compounds was administered orally (PO) to a total of 27 male mice. Each mouse was given 100 mL of the IV dosing solution by intravenous tail-vein injection and 200 mL of the PO dosing solution by oral gavage. Animals that received the IV dose were not fasted and that received the PO dose were fasted overnight prior to dosing. At 0 (immediately before dosing), 2 (IV only), 5 (IV only), 15 and 30 min and at 1, 2, 4, 6, 8, 16 and 24 h after dosing, blood (˜500 mL) was collected from groups of 3 mice at each time point by cardio puncture and stored in ice (0-4° C.). Ethylenediaminetetraacetic acid (EDTA) was used as the anticoagulant. Plasma was separated from the blood by centrifugation (3000 rpm for 15 minutes at 4° C. in a Beckman Model Allegra 6R centrifuge) and stored in a freezer (−20° C.). Control plasma was obtained from mice receiving no compound for use of constructing the standard curve and for the preparation of quality control (QC) samples. All samples were analyzed for the parent compound by LC-MS/MS.
(§8) Oral bioavailability, presented as a percentage (F %), was calculated from dividing the average area under the curve (AUC) value of a compound after PO dosing by the average AUC value of the compound after IV dosing following dose normalization.

Colo205 xenografts = experiment: Xenograft efficacy, Colo205 model; type: in vivo; conditions: Colo205 xenografts in nude mice, 5 times a week for 2 weeks
Method: (§1) Male nude mice (Nu-Fox1^nu) of 8 weeks old were purchased from BioLASCO (Taipei, Taiwan, R.O.C.). Human colorectal Colo205, pancreatic Mia-PaCa 2 tumor cells or MOLM-13, 32D-ITD/D835Y leukemia cells were inoculated subcutaneously at 1×10^6 cells each in the nude mice. All human cancer cells were detected as free of Mycoplasma spp before they were injected into animals. The tumor cells grow as xenograft tumors and the tumor size reached approximately 200-250 mm^3 in the nude mice ready for dose treatments. Test compounds were dissolved in 20% 2-hydroxypropy-β-cyclodextrin individually for oral gavage administrations to the nude mice. The tumor-bearing mice were treated with test compounds at various doses, 5 times a week for 2 weeks. Tumor sizes were measured by an electronic caliper and calculated with the formula: tumor size=length×width^2/2. Tumor size and animal body weight were measured twice a week before and after the tumor cell inoculation throughout the observation period. Uses of animals and experimental procedures thereof were approved by the Institutional Animal Care and Use Committee (IACUC) of the National Health Research Institutes.

[1] = tested on: xenografts colo205 nude mice; experiment: In vivo toxicity study, colo205 model; conditions: for Mortality (nude mice n = 6): 5 on 2 off × 2; for Tolerability: PO once daily, Compounds 1, 2, 3, 4, 6 at 50, 50, 100, 150 and 25 mg/kg
Method: as §1, with “All human cancer cells were detected as free of Mycoplasma spp before they were injected into animals.” left out
(§2) Nine weeks old athymic nu/nu nude mice were administered orally at a once daily dose of 25, 50, 100, or 150 mg/kg on days 1-5 and 8-12.

[2] = tested on: xenografts Mia-paca2 nude mice; experiment: In vivo toxicity study, Mia-paca2 model; conditions: PO 25 mg/kg once daily; for Mortality (nude mice n = 6): 5 on 2 off × 2
Method: as §1, with “All human cancer cells were detected as free of Mycoplasma spp before they were injected into animals.” left out
as §2

Mia-paca2 tumor model = experiment: Xenograft efficacy, Mia-paca2 tumor model; type: in vivo, nude mice; conditions: PO 25 mg/kg
Method: as §1

[3] = tested on: xenografts FLT3-ITD-D835Y nude mice; experiment: In vivo toxicity study, FLT3-ITD-D835Y model; conditions: PO 25 mg/kg once daily; for Mortality (nude mice n = 8): 5 on 2 off × 2
Method: as §1
(§3) Compounds of formula (I) were tested in animals for their in vivo efficacy following the procedure described in EXAMPLE 24. Nine weeks old athymic nu/nu nude mice were administered orally at a once daily dose of 25, 50, 100, or 150 mg/kg on days 1-5 and 8-12.

PDGFR A = PDGFR A (Homo sapiens, UniProt P16234); experiment: SelectScreen biochemical kinase profiling; type: binding; conditions: 100 nM, read-out: Inhibition (% of control) at 100 nM
Chain of PDGFR A (P16234 24-1089): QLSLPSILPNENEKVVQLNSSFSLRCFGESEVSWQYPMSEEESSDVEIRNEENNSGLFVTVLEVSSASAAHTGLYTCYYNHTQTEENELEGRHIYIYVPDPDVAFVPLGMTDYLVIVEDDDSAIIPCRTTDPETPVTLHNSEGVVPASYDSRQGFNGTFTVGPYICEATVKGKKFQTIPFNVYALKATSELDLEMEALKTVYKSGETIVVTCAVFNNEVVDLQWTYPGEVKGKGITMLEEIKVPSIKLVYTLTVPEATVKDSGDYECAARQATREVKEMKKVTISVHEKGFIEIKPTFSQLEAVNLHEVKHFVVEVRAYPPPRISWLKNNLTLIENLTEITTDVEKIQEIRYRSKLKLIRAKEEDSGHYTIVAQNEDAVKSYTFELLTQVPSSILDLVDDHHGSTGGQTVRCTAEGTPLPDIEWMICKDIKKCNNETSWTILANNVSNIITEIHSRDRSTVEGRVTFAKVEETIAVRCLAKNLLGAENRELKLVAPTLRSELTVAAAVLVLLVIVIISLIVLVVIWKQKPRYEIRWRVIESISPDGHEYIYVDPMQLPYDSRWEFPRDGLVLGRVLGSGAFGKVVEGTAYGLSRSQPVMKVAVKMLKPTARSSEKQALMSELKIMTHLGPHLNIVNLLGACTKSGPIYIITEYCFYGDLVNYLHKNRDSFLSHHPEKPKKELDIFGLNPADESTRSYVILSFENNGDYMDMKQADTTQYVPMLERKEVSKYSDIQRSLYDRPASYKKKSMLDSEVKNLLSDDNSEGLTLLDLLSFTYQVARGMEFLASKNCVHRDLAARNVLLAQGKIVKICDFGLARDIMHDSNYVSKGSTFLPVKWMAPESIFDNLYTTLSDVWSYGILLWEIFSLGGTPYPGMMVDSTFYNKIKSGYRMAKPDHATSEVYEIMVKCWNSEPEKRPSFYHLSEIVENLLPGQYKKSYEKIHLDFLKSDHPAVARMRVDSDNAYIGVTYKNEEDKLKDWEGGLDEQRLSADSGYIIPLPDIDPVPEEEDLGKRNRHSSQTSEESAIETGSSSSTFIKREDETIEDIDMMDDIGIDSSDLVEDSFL
Method: (§4) Kinase inhibition data were obtained from SelectScreen® Biochemical Kinase Profiling Service.
(§5) More specifically, test compounds were screened in 160 nL of a 1% DMSO solution in the well of a 384-well plate; kinase/antibody mixtures (8 μL) were diluted to a 2-fold working concentration in an appropriate kinase buffer (3.84 μL) and a 4-fold AlexaFluor® labeled tracer (4 μL) was prepared in the kinase buffer; incubation of test solutions was conducted at room is temperature for 60 minutes; and readout on a fluorescence plate reader was recorded and analyzed.

DDR1 = DDR1 (Homo sapiens, UniProt Q08345); experiment: SelectScreen biochemical kinase profiling; type: binding; conditions: 100 nM, read-out: Inhibition (% of control) at 100 nM
Method: as §4, §5

TRK A = TRK A (Homo sapiens, UniProt P04629); experiment: SelectScreen biochemical kinase profiling; type: binding; conditions: 100 nM, read-out: Inhibition (% of control) at 100 nM
Chain of TRK A (P04629 33-796): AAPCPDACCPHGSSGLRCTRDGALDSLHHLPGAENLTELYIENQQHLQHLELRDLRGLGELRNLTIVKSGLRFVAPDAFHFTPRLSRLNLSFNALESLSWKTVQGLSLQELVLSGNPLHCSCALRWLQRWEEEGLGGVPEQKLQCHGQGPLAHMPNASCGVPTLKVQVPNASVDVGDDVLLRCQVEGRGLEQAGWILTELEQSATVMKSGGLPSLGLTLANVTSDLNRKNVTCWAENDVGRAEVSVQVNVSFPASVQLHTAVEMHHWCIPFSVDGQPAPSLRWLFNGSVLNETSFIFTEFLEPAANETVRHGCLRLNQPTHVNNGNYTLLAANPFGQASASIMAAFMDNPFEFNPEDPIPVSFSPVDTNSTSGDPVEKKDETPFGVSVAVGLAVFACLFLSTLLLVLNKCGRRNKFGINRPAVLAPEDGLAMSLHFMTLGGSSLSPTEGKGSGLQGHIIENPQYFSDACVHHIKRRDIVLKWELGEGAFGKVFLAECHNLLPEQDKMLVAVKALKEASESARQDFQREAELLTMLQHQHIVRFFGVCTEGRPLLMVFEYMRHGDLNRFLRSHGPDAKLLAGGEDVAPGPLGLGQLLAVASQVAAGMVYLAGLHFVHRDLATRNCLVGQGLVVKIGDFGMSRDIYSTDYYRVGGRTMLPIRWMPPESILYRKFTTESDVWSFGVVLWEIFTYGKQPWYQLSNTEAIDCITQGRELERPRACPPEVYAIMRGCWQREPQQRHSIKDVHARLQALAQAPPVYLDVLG
Method: as §4, §5

TRK B = TRK B (Homo sapiens, UniProt Q16620); experiment: SelectScreen biochemical kinase profiling; type: binding; conditions: 100 nM, read-out: Inhibition (% of control) at 100 nM
Chain of TRK B (Q16620 32-822): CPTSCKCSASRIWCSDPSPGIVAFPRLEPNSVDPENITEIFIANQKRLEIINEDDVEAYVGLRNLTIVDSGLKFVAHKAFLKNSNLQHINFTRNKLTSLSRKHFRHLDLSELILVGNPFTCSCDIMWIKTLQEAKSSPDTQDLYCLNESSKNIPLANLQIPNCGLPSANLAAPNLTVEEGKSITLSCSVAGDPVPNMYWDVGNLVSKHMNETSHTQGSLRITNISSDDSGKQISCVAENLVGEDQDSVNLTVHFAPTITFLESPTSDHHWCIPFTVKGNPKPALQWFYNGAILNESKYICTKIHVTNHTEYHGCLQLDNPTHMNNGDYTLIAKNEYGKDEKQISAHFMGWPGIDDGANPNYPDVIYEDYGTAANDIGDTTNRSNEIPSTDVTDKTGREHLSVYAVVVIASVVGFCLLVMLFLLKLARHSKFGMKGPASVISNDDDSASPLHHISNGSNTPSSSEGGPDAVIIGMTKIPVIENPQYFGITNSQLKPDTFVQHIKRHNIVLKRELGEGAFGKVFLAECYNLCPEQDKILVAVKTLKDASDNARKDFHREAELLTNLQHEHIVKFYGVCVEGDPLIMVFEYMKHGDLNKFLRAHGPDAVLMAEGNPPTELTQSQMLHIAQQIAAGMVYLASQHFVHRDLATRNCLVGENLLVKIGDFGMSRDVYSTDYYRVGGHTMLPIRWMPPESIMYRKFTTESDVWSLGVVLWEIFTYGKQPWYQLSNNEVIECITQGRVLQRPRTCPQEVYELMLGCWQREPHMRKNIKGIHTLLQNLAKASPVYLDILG
Method: as §4, §5

PDGFR B = PDGFR B (Homo sapiens, UniProt P09619); experiment: SelectScreen biochemical kinase profiling; type: binding; conditions: 100 nM, read-out: Inhibition (% of control) at 100 nM
Method: as §4, §5

SRC = SRC (Homo sapiens, UniProt P12931); experiment: SelectScreen biochemical kinase profiling; type: binding; conditions: 100 nM, read-out: Inhibition (% of control) at 100 nM
Chain of SRC (P12931 whole entry): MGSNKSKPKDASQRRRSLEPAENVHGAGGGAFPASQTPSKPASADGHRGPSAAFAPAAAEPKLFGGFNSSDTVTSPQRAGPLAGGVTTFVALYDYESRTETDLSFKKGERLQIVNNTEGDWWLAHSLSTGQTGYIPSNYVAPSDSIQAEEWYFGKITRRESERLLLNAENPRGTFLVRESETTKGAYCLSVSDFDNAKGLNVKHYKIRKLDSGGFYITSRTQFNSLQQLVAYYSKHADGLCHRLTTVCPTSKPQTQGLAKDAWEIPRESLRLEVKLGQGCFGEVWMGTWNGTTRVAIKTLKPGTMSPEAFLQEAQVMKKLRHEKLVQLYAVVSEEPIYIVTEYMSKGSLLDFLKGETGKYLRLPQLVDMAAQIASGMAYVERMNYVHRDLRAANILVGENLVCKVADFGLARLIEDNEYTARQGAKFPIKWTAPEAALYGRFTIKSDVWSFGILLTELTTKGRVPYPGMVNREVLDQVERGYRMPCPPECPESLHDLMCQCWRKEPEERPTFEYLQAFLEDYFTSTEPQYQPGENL
Method: as §4, §5

RET = RET (Homo sapiens, UniProt P07949); experiment: SelectScreen biochemical kinase profiling; type: binding; conditions: 100 nM, read-out: Inhibition (% of control) at 100 nM
Chain of RET (P07949 29-1114): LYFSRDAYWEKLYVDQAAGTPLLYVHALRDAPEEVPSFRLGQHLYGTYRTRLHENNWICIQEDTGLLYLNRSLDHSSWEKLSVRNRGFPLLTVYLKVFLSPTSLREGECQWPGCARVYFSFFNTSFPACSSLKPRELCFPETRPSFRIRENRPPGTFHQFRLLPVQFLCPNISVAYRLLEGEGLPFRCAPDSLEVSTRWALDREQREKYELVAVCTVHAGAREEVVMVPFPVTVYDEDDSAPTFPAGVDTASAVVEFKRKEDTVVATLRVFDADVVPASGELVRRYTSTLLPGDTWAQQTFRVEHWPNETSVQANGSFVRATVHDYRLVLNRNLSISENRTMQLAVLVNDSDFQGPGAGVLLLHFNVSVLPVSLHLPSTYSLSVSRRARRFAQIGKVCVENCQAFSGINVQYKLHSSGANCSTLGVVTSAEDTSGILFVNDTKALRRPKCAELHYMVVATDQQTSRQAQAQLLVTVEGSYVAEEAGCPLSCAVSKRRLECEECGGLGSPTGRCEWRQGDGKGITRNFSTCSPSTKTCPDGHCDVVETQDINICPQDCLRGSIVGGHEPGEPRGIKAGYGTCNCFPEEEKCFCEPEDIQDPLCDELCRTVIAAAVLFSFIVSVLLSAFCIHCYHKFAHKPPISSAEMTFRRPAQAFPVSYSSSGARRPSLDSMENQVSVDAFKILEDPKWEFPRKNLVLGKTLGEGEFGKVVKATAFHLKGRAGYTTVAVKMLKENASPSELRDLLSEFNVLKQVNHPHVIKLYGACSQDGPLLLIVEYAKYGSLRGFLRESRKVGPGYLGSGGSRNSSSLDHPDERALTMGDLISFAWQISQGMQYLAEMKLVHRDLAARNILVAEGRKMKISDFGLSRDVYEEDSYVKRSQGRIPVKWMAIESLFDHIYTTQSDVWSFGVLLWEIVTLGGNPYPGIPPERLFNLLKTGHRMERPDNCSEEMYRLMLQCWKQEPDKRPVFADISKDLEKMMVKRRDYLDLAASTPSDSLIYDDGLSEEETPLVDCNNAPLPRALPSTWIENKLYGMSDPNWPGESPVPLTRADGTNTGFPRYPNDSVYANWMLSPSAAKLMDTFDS
Method: as §4, §5

KIT = KIT (Homo sapiens, UniProt P10721); experiment: SelectScreen biochemical kinase profiling; type: binding; conditions: 100 nM, read-out: Inhibition (% of control) at 100 nM
Method: as §4, §5

MOLM-13 xenografts = experiment: Xenograft efficacy, MOLM-13 model; type: in vivo, nude mice; conditions: starting tumor size ~250 mm^3
Method: as §1

[4] = tested on: xenografts MOLM-13 nude mice; experiment: In vivo toxicity study, MOLM-13 model; conditions: for Mortality (nude mice n = 6 or 7): 5 on 2 off × 2; for Tolerability: PO once daily, Compound 2 at 25 and 50, Compound 4 at 150 mg/kg
Method: as §1, §3

[5] = Pharmacokinetics and oral bioavailability in mice; conditions: for AUC(0-inf) / bioavailability: male, ICR, mouse, plasma
Method: as §7, §8

[6] = tested on: xenografts FLT3-ITD-D835Y model; experiment: Xenograft efficacy, FLT3-ITD-D835Y model; type: in vivo; conditions: FLT3-ITD-D835Y xenograft in nude mice, PO 25 mg/kg
Method: as §1

32D-ITD/D835F cells = experiment: MTS cell viability, 32D cells expressing FLT3-ITD mutant; type: cell-based, Murine; conditions: 72-h incubation
From the text: (§6) The five leukemic 32D cell lines were purchased from American Type Culture Collection (ATCC, Manassas, Va., USA). Murine pro-B lymphocyte 32D cell lines were stably transfected with expression vectors that encoded human FLT3 containing an ITD mutation (32D-ITD cells), ITD and D835Y (32D-ITD/D835Y cells), ITD and D835V (32D-ITD/D835V cells), ITD and D835F (32D-ITD/D835F cells), and ITD and F691L (32D-ITD/F691L cells) mutations, which lead to constitutive activation of the FLT3 downstream signaling proteins. The cell viability was assessed with the MTS assay described in PLoS One, 2014, 9, e97116. 32D-ITD/D835Y, 32D-ITD/D835V, 32D-ITD/D835F, 32D-ITD/F691L, and 32D-ITD/F691I cells were seeded in 96-well plates at 1×10^4 cells/mL (100 μL per well) for 24-h incubation. Test compounds (at various concentrations in dimethyl sulfoxide (DMSO) were subsequently added to the culture medium for 72-h incubation. The cell viability was determined by the MTS assay (Promega, Madison, Wis., USA).

32D-ITD/F691L cells = experiment: as above; type: cell-based, Murine; conditions: 72-h incubation
From the text: as §6

32D-ITD/F691I cells = experiment: as above; type: cell-based, Murine; conditions: 72-h incubation
From the text: as §6

ABL1 T315I = ABL1 T315I (Homo sapiens, UniProt P00519, T315I); experiment: SelectScreen biochemical kinase profiling; type: binding; conditions: 100 nM, read-out: Inhibition (% of control) at 100 nM
Method: as §4, §5

Row | Structure (SMILES) | Tolerability [1] | Tolerability [2] | Mortality (nude mice n = 6) [2] | Day 18 TGI (Mia-paca2 tumor model) [%] | Tolerability [3] | Mortality (nude mice n = 8) [3] | inhibition at 0.1 µM (PDGFR A) [%] | inhibition at 0.1 µM (DDR1) [%] | inhibition at 0.1 µM (TRK A) [%] | inhibition at 0.1 µM (TRK B) [%] | inhibition at 0.1 µM (PDGFR B) [%] | inhibition at 0.1 µM (SRC) [%] | inhibition at 0.1 µM (RET) [%] | inhibition at 0.1 µM (KIT) [%] | Tolerability [4] | AUC(0-inf) ([5]; iv, 2 mg/kg) [ng·h/mL] | AUC(0-inf) ([5]; po, 10 mg/kg) [ng·h/mL] | Day 12 tumor regression [6] [%] | GI50 (32D-ITD/D835F cells) [nM] | GI50 (32D-ITD/D835F cells; Mus musculus, 32D, 72 h) [nM] | further results
1 | CCc1cc(NC(=O)Nc2ccc(-c3cnc(Nc4cc(N5CCN(CCF)CC5)nc(C)n4)s3)cc2)no1 [Compound 6, 1-(5-Ethylisoxazol-3-yl)-3-(4-(2-((6-(4-(2-fluoroethyl)piperazin-1-yl)-2-methylpyrimidin-4-yl)amino)thiazol-5-yl)phenyl)urea] | well tolerated | well tolerated | 0/6 (25 mg/kg) | 68 |  |  |  |  |  |  |  |  |  |  |  |  |  |  |  |  | AUC(0-inf) (in vivo; iv, 2 mg/kg): 1840 ng·h/mL; AUC(0-inf) (in vivo; po, 10 mg/kg): 7580 ng·h/mL; bioavailability (in vivo; po, 10 mg/kg): 89%; Day 18 TGI (Colo205 xenografts; PO 25 mg/kg, 25 mg/kg): ~80%; Mortality (nude mice n = 6) ([1]; PO 25 mg/kg once daily): 0/6 (25 mg/kg)
2 | CCc1cc(NC(=O)Nc2ccc(-c3cnc(Nc4cc(N5CCN(CC)CC5)ncn4)s3)cc2)no1 [Compound 2, 1-(5-Ethylisoxazol-3-yl)-3-(4-(2-((6-(4-ethylpiperazin-1-yl)pyrimidin-4-yl)amino)thiazol-5-yl)phenyl)urea] | well tolerated |  |  |  | well tolerated | 0/8 (25 mg/kg) | 89 | 80 | 60 | 72 | 80 | 79 | 94 | 67 | well tolerated | 1440 | 2800 | 34 | 5.8 | < 6 | Day 25 tumor size (MOLM-13 xenografts; PO 25 mpk): 270 mm^3; Day 25 tumor size (MOLM-13 xenografts; PO 50 mpk): 53 mm^3; Day 18 TGI (Colo205 xenografts; PO 50 mg/kg, 50 mg/kg): ~80%; Mortality (nude mice n = 6 or 7) ([4]; PO 25 or 50 mg/kg once daily): 0/6; Mortality (nude mice n = 6) ([1]; PO 50 mg/kg once daily): 0/6 (50 mg/kg); F (%) oral bioavailability ([5]; mice, PO 10 mg/kg vs IV 2 mg/kg, dose normalized): 38%; GI50 (32D-ITD/F691L cells; Mus musculus, 32D, 72 h): 14 nM; GI50 (32D-ITD/F691I cells; Mus musculus, 32D, 72 h): 158 nM
3 | CCc1cc(NC(=O)Nc2ccc(-c3cnc(Nc4cc(N5CCN(CCF)CC5)ncn4)s3)cc2)no1 [Compound 5, 1-(5-Ethylisoxazol-3-yl)-3-(4-(2-((6-(4-(2-fluoroethyl)piperazin-1-yl)pyrimidin-4-yl)amino)thiazol-5-yl)phenyl)urea] |  | well tolerated | 0/6 (25 mg/kg) | 65 | well tolerated | 0/8 (25 mg/kg) |  |  |  |  |  |  |  |  |  | 2720 | 8240 | 22 |  |  | bioavailability ([5]; po, 10 mg/kg): 67%
4 | CCc1cc(NC(=O)Nc2ccc(-c3cnc(Nc4cc(OCCN5CCOCC5)ncn4)s3)cc2)no1 [Compound 3, 1-(5-Ethylisoxazol-3-yl)-3-(4-(2-((6-(2-morpholinoethoxy)pyrimidin-4-yl)amino)thiazol-5-yl)phenyl)urea] | well tolerated |  |  |  |  |  | 79 | 77 | 69 | 73 | 92 | 66 | 56 | 85 |  | 2070 | 11400 |  |  |  | inhibition at 0.1 µM (ABL1 T315I): 15%; Day 18 TGI (Colo205 xenografts; PO 100 mg/kg, 100 mg/kg): ~80%; Mortality (nude mice n = 6) ([1]; PO 100 mg/kg once daily): 0/6 (100 mg/kg); bioavailability ([5]; po, 10 mg/kg): 96%
5 | CCc1cc(NC(=O)Nc2ccc(-c3cnc(Nc4cc(N5CCN(CCO)CC5)ncn4)s3)cc2)no1 [Compound 4, 1-(5-Ethylisoxazol-3-yl)-3-(4-(2-((6-(4-(2-hydroxyethyl)piperazin-1-yl)pyrimidin-4-yl)amino)thiazol-5-yl)phenyl)urea] | well tolerated |  |  |  |  |  |  |  |  |  |  |  |  |  | well tolerated |  |  |  | 5.5 | < 6 | Day 25 tumor size (MOLM-13 xenografts; PO 150 mpk): 193 mm^3 (150 mpk); Day 18 TGI (Colo205 xenografts; PO 150 mg/kg, 150 mg/kg): ~80%; Mortality (nude mice n = 6 or 7) ([4]; PO 150 mg/kg once daily): 0/6; Mortality (nude mice n = 6) ([1]; PO 150 mg/kg once daily): 0/6 (150 mg/kg); GI50 (32D-ITD/F691L cells): 12 nM; GI50 (32D-ITD/F691L cells; Mus musculus, 32D, 72 h): < 20 nM; GI50 (32D-ITD/F691I cells): 19 nM; GI50 (32D-ITD/F691I cells; Mus musculus, 32D, 72 h): < 20 nM
